Assay results reported in EP0250134B1, “Method for combating swine dysentery” (IMCERA Group Inc., priority 1986, dated 1987).

What was measured:
[1] = system: Treponema hyodysenteriae; assay: in vitro Streak Plate Test Method (inhibition endpoint / MIC on trypticase soy blood agar); format: cell-based; conditions: summary of Table 1
Protocol: The following test procedure was used to evaluate the anti-Treponema hyodysenteriae activity of the compounds in the present invention. This test procedure establishes the lowest concentration of the compounds that will inhibit the growth on cultures of Treponema hyodysenteriae in an in vitro Streak Plate Test Method.
Procedure: Stock solutions containing 10,000, 1,000, 100, 10, 1.0, and 0.1, micrograms per milliliters of the compound to be tested were prepared. The final dilutions to establish the test concentrations in the media were made by placing the correct volume of stock solution in a petri dish, adding the media (trypticase soy blood agar), and mixing before the media solidified. After the media solidified, the test cultures of Treponema hyodysenteriae were streaked onto the surface of the agar. Petri dishes containing media without test samples were also set up as culture controls and are inoculated in the same manner. All inoculated plates were incubated at 39°C in anaerobic jars for 48 hrs. Inhibition endpoints were then determined by observing the test plates for growth or no growth of the test cultures at the various concentrations of the compounds. If the culture growth occured at one concentration but not at the next higher concentration, the inhibitory endpoint or MIC (Minimum Inhibitory Concentration) was considered the higher concentration.
Referring to Table 1, the culture numbers refer to field isolate strains of Treponema hyodysenteriae. These field isolates were isolated in Illinois, Iowa, and Nebraska. The numbers giving the results in the Table are read as follows: the first number for each isolate and compound tested corresponds to the concentration in micrograms per milliliter where growth occurred and the second number corresponds to the concentration in micrograms per milliliter where no growth occurred.

[2] = system: Treponema hyodysenteriae induced swine dysentery; assay: Treponema hyodysenteriae induced swine dysentery, lysocellin in feed, 51-day trial, challenge on study day 22; format: in vivo; conditions: for Number of Pigs per Pen Expressing Clinical Signs of Dysentery During the Postchallenge Period: Anorexia / Number of Pigs per Pen Expressing Clinical Signs of Dysentery During the Postchallenge Period: Any clinical signs / Number of Pigs per Pen Expressing Clinical Signs of Dysentery During the Postchallenge Period: Bloody feces / Number of Pigs per Pen Expressing Clinical Signs of Dysentery During the Postchallenge Period: Dehydrated / Number of Pigs per Pen Expressing Clinical Signs of Dysentery During the Postchallenge Period: Depressed / Number of Pigs per Pen Expressing Clinical Signs of Dysentery During the Postchallenge Period: Gauntness / Number of Pigs per Pen Expressing Clinical Signs of Dysentery During the Postchallenge Period: Lethargic / Number of Pigs per Pen Expressing Clinical Signs of Dysentery During the Postchallenge Period: Reddened skin / Number of Pigs per Pen Expressing Clinical Signs of Dysentery During the Postchallenge Period: Rough hair coat / Number of Pigs per Pen Expressing Clinical Signs of Dysentery During the Postchallenge Period: Weak: 5 pigs/pen
Source text: One hundred twenty (120) cross-bred barrows and gilts were used in a randomized complete blocks design to evaluate the effect of lysocellin on Treponema hyodysenteriae induced swine dysentery. The swine were divided into 4 groups: (1) non-infected, non-medicated controls, (2) infected non-medicated controls, (3) infected, medicated at 98.43 grams lysocellin/t (100 g/T), and (4) infected, medicated at 196.85 grams lysocellin/t (200 g/T). All were observed through a 51-day trial period. Swine in groups (2)-(4) were challenged with Treponema hyodysenteriae on study day 22 and the post-challenge period data were analyzed for significant differences. A description of the experimental design is summarized as follows:
Comparisons were made on treatment 1 vs. treatments 3 and 4, treatment 2 vs. treatment 3 and 4, and treatment 3 vs. treatment 4. The following observations were made based upon data analyzed: postchallenge performance of swine with respect to daily gain and daily feed gain, number of pigs per pen expressing clinical signs of dysentery during the postchallenge period, number of pig days per pen with clinical signs of dysentery during the postchallenge period, and number of pig days per pen with specified fecal score.
Referring to table 3 and table 4, clinical signs of dysentery observed during the postchallenge period are presented as treatment means of: number of pigs per pen expressing the sign and number of pig days the sign was observed within a pen. The value "pig days" was based on 28 days/pig surviving to the end of the trial or number of days a pig survived during the postchallenge period (for example, 5 pigs/pen on trial for 28 days equals 140 pig days). Removal of pigs from a pen during the trial was taken into account in these calculations.

[3] = 98.43 g/t (100 g/T) lysocellin, mean (lower, higher 95% confidence limits)
[4] = 98.43 g/t (100 g/T) lysocellin, mean (lower, higher 95% confidence limits), 5 pigs/pen for 28 days = 140 pig days
[5] = 196.85 g/t (200 g/T) lysocellin, mean (lower, higher 95% confidence limits)
[6] = 196.85 g/t (200 g/T) lysocellin, mean (lower, higher 95% confidence limits), 5 pigs/pen for 28 days = 140 pig days

For lysocellin, the “activity compared to the controls” value [1] was “comparable activity”, the “Number of Pigs per Pen Expressing Clinical Signs of Dysentery During the Postchallenge Period: Anorexia” value [2, 3] was 0.00 (-0.27,0.37) and the “Number of Pigs per Pen Expressing Clinical Signs of Dysentery During the Postchallenge Period: Any clinical signs” value [2, 3] was 4.49 (3.42,5.69). For the same substance, the “Number of Pigs per Pen Expressing Clinical Signs of Dysentery During the Postchallenge Period: Bloody feces” value [2, 3] was 2.73 (1.93,3.66), the “Number of Pigs per Pen Expressing Clinical Signs of Dysentery During the Postchallenge Period: Dehydrated” value [2, 3] was 1.08 (0.44,1.89) and the “Number of Pigs per Pen Expressing Clinical Signs of Dysentery During the Postchallenge Period: Depressed” value [2, 3] was 1.78 (1.18,2.47). The “Number of Pigs per Pen Expressing Clinical Signs of Dysentery During the Postchallenge Period: Gauntness” value [2, 3] was 3.98 (3.13,4.92), the “Number of Pigs per Pen Expressing Clinical Signs of Dysentery During the Postchallenge Period: Lethargic” value [2, 3] was 2.12 (1.50,2.82) and the “Number of Pigs per Pen Expressing Clinical Signs of Dysentery During the Postchallenge Period: Reddened skin” value [2, 3] was 0.87 (0.24,1.69). For the same substance, the “Number of Pigs per Pen Expressing Clinical Signs of Dysentery During the Postchallenge Period: Rough hair coat” value [2, 3] was 1.93 (1.20,2.79), the “Number of Pigs per Pen Expressing Clinical Signs of Dysentery During the Postchallenge Period: Weak” value [2, 3] was 1.93 (1.31,2.64) and the “Number of Pig Days per Pen with Clinical Signs of Dysentery During the Postchallenge Period: Anorexia” value [2, 4] was 0.00 (-0.30,0.43). For the same substance, the “Number of Pig Days per Pen with Clinical Signs of Dysentery During the Postchallenge Period: Bloody feces” value [2, 4] was 9.98 (5.72,15.34), the “Number of Pig Days per Pen with Clinical Signs of Dysentery During the Postchallenge Period: Dehydrated” value [2, 4] was 2.69 (1.40,4.33) and the “Number of Pig Days per Pen with Clinical Signs of Dysentery During the Postchallenge Period: Depressed” value [2, 4] was 3.14 (1.78,4.81). For the same substance, the “Number of Pig Days per Pen with Clinical Signs of Dysentery During the Postchallenge Period: Gauntness” value [2, 4] was 30.35 (20.97,41.42), the “Number of Pig Days per Pen with Clinical Signs of Dysentery During the Postchallenge Period: Lethargic” value [2, 4] was 9.08 (4.93,14.42) and the “Number of Pig Days per Pen with Clinical Signs of Dysentery During the Postchallenge Period: Reddened skin” value [2, 4] was 2.21 (0.51,4.72). For the same substance, the “Number of Pig Days per Pen with Clinical Signs of Dysentery During the Postchallenge Period: Rough hair coat” value [2, 4] was 18.07 (7.46,33.11), the “Number of Pig Days per Pen with Clinical Signs of Dysentery During the Postchallenge Period: Weak” value [2, 4] was 0.87 (0.08,1.99) and the “fecal condition (number of pen pig days with a specified fecal condition)” value ([2]; 196.85 g lysocellin/t (200 g/T) rather than 98.43 g/T, postchallenge period (Table 5, not given)) was “increased (PM.05) the number of days with normal feces and decreased (P<.05) the incidence of soft, watery or bloody feces”. The “Number of Pigs per Pen Expressing Clinical Signs of Dysentery During the Postchallenge Period: Anorexia” value [2, 5] was 0.00 (-0.27,0.37), the “Number of Pigs per Pen Expressing Clinical Signs of Dysentery During the Postchallenge Period: Any clinical signs” value [2, 5] was 2.72 (1.87,3.70) and the “Number of Pigs per Pen Expressing Clinical Signs of Dysentery During the Postchallenge Period: Bloody feces” value [2, 5] was 1.20 (0.63,1.89). For the same substance, the “Number of Pigs per Pen Expressing Clinical Signs of Dysentery During the Postchallenge Period: Dehydrated” value [2, 5] was 0.23 (-0.18,0.80), the “Number of Pigs per Pen Expressing Clinical Signs of Dysentery During the Postchallenge Period: Depressed” value [2, 5] was 0.27 (-0.06,0.70) and the “Number of Pigs per Pen Expressing Clinical Signs of Dysentery During the Postchallenge Period: Gauntness” value [2, 5] was 1.96 (1.35,2.67). For the same substance, the “Number of Pigs per Pen Expressing Clinical Signs of Dysentery During the Postchallenge Period: Lethargic” value [2, 5] was 0.43 (0.08,0.87), the “Number of Pigs per Pen Expressing Clinical Signs of Dysentery During the Postchallenge Period: Reddened skin” value [2, 5] was 0.55 (0.01,1.28) and the “Number of Pigs per Pen Expressing Clinical Signs of Dysentery During the Postchallenge Period: Rough hair coat” value [2, 5] was 1.31 (0.68,2.06). The “Number of Pigs per Pen Expressing Clinical Signs of Dysentery During the Postchallenge Period: Weak” value [2, 5] was 1.31 (0.78,1.93), the “Number of Pig Days per Pen with Clinical Signs of Dysentery During the Postchallenge Period: Anorexia” value [2, 6] was 0.00 (-0.30,0.43) and the “Number of Pig Days per Pen with Clinical Signs of Dysentery During the Postchallenge Period: Bloody feces” value [2, 6] was 3.02 (0.78,6.35). For the same substance, the “Number of Pig Days per Pen with Clinical Signs of Dysentery During the Postchallenge Period: Dehydrated” value [2, 6] was 0.23 (-0.30,1.09).
